This note sets out measurements from ChEMBL document CHEMBL5042490, “Lead derivatization of ethyl 6-bromo-2-((dimethylamino)methyl)-5-hydroxy-1-phenyl-1H-indole-3-carboxylate and 5-bromo-2-(thiophene-2-carboxamido) benzoic acid as FabG inhibitors targeting ESKAPE pathogens” (Eur J Med Chem, 2022).

Molecules are shown by their SMILES.

Test [1] can be described thus: Inhibition of Klebsiella pneumoniae FabG1 assessed as reduction in Acetoacetyl-coenzyme-A substrate in presence of NADPH preincubated for 5 mins followed by substrate addition and measured for 6 to 10 mins by spectrophotometric analysis.
Test [2] is described as follows: Inhibition of Staphylococcus aureus FabG assessed as reduction in Acetoacetyl-coenzyme-A substrate in presence of NADPH preincubated for 5 mins followed by substrate addition and measured for 6 to 10 mins by spectrophotometric analysis.
Test [3] is described as follows: Inhibition of Escherichia coli FabG assessed as reduction in Acetoacetyl-coenzyme-A substrate in presence of NADPH preincubated for 5 mins followed by substrate addition and measured for 6 to 10 mins by spectrophotometric analysis.
The nature of test [4]: Inhibition of Klebsiella pneumoniae FabG2 assessed as reduction in Acetoacetyl-coenzyme-A substrate in presence of NADH preincubated for 5 mins followed by substrate addition and measured for 6 to 10 mins by spectrophotometric analysis.
Test [5] can be described thus: Inhibition of Acinetobacter baumannii FabG assessed as reduction in Acetoacetyl-coenzyme-A substrate in presence of NADPH preincubated for 5 mins followed by substrate addition and measured for 6 to 10 mins by spectrophotometric analysis.
A short description of test [6]: Inhibition of Salmonella typhimurium FabG assessed as reduction in Acetoacetyl-coenzyme-A substrate in presence of NADPH preincubated for 5 mins followed by substrate addition and measured for 6 to 10 mins by spectrophotometric analysis. On the set-up: species or system Salmonella enterica subsp. enterica serovar Typhimurium.
A short description of test [7]: Inhibition of Pseudomonas aeruginosa FabG assessed as reduction in Acetoacetyl-coenzyme-A substrate in presence of NADPH preincubated for 5 mins followed by substrate addition and measured for 6 to 10 mins by spectrophotometric analysis.
A short description of test [8]: Inhibition of Mycobacterium tuberculosis FabG assessed as reduction in Acetoacetyl-coenzyme-A substrate in presence of NADPH preincubated for 5 mins followed by substrate addition and measured for 6 to 10 mins by spectrophotometric analysis.

Take `CCOC(=O)c1c(CSc2nc3ccccc3o2)n(C)c2cc(Br)c(O)cc12`: the IC50 result was “Not Active” in test [1]; “Not Active” in test [2]; 18.6 µM in test [3] (read-out: IC50); “Not Active” in test [4]; “Not Active” in test [5]; “Not Active” in test [6]. Moreover, the IC50 result in test [7] is reported as “Not Active”.

As to `Cc1c(Br)cccc1C(=O)Nc1ccc(Br)cc1C(=O)O`, the IC50 result is “Not Active” in test [1]; “Not Active” in test [2]; “Not Active” in test [3]; “Not Active” in test [4]; 36.7 µM in test [5] (read-out: IC50); “Not Active” in test [6]. Further, in test [7], the IC50 result is on record as “Not Active”.

With `O=C(CCBr)Nc1ccc(Br)cc1C(=O)O`, the concentration for half-maximal inhibition (IC50) entry in test [1] was “Not Active”; in test [2], “Not Active”; in test [8] (read-out: IC50) it was 78.3 µM; in test [3] it was “Not Active”; in test [4], “Not Active”; in test [5], “Not Active”. In addition, the IC50 entry in test [6] and in test [7] was “Not Active” throughout.

Turning to `O=C(Nc1ccc(Br)cc1C(=O)O)c1cccc(I)c1`, the IC50 entry in test [1] is “Not Active”; in test [2], “Not Active”; in test [8] (read-out: IC50), 14.7 µM; in test [3] (read-out: IC50) it was 21.6 µM; in test [4] it was “Not Active”; in test [5] (read-out: IC50), 15.7 µM. The IC50 in test [6] (read-out: IC50) was 37.4 µM; in test [7], “Not Active”.

`O=C(O)c1cc(Br)ccc1NC(=O)c1cccnc1Cl`: the half-inhibitory concentration (IC50) result was “Not Active” in test [1]; “Not Active” in test [2]; 15.9 µM in test [3] (read-out: IC50); “Not Active” in test [4]; “Not Active” in test [5]; 51 µM in test [6] (read-out: IC50). The 50% inhibitory concentration (IC50) result in test [7] is on record as “Not Active”.

As for `CCOC(=O)c1c(CSc2nc3ccccc3s2)n(C)c2cc(Br)c(O)cc12`, the IC50 entry in test [1] was “Not Active”; in test [2], “Not Active”; in test [3] (read-out: IC50), 31.8 µM; in test [4], “Not Active”; in test [5] it was “Not Active”; in test [6], “Not Active”. Besides, the IC50 result in test [7] is “Not Active”.

As to `CCOC(=O)c1c(CSc2nc3ccccc3s2)n(Cc2ccccc2)c2cc(Br)c(O)cc12`, the IC50 result was “Not Active” in test [1]; “Not Active” in test [2]; “Not Active” in test [8]; 20.8 µM in test [3] (read-out: IC50); “Not Active” in test [4]; “Not Active” in test [5]. For the same compound, the IC50 entry in test [6] and in test [7] was “Not Active” in each case.

The term IC50 denotes the concentration that inhibits the measured activity by half.
